From the NIST ThermoML archive (doi:10.1021/je100832h)

Columns and labels:
[1] = xn = mol fraction of the nth substance listed; conditions: 101.32 kPa, Liquid, Vibrating tube method
[2] = excess molar enthalpy (molar enthalpy of mixing); xn = mol fraction of the nth substance listed; conditions: 291.15 K, 101 kPa, Liquid, Calvet calorimetry

CCCCCCCCC [nonane] + CCOC(C)=O
[1]
Conditions	mass density [kg/m3]
291.15 K, x2 = 0	719.2
291.15 K, x2 = 0.0328	721.88
291.15 K, x2 = 0.0796	726
291.15 K, x2 = 0.1292	730.54
291.15 K, x2 = 0.2225	740.13
291.15 K, x2 = 0.3076	750
291.15 K, x2 = 0.3932	761.25
291.15 K, x2 = 0.4659	771.77
291.15 K, x2 = 0.5694	788.99
291.15 K, x2 = 0.6015	794.91
291.15 K, x2 = 0.6514	804.7
291.15 K, x2 = 0.7041	815.84
291.15 K, x2 = 0.7547	827.59
291.15 K, x2 = 0.8076	840.96
291.15 K, x2 = 0.8502	852.64
291.15 K, x2 = 0.8954	866.2
291.15 K, x2 = 0.9307	877.58
291.15 K, x2 = 0.9918	899.59
298.15 K, x2 = 0	713.85
298.15 K, x2 = 0.0652	719.2
298.15 K, x2 = 0.1102	723.17
298.15 K, x2 = 0.1906	730.94
298.15 K, x2 = 0.2667	739.14
298.15 K, x2 = 0.3377	747.65
298.15 K, x2 = 0.4128	757.7
298.15 K, x2 = 0.4737	766.6
298.15 K, x2 = 0.5212	774.12
298.15 K, x2 = 0.5875	785.5
298.15 K, x2 = 0.6305	793.54
298.15 K, x2 = 0.6743	802.32
298.15 K, x2 = 0.7212	812.53
298.15 K, x2 = 0.767	823.2
298.15 K, x2 = 0.8024	832.16
298.15 K, x2 = 0.8428	843.01
298.15 K, x2 = 0.8654	849.38
298.15 K, x2 = 0.9419	873.16
298.15 K, x2 = 0.9564	878.07
318.15 K, x2 = 0	698.09
318.15 K, x2 = 0.0372	700.83
318.15 K, x2 = 0.1287	708.3
318.15 K, x2 = 0.2206	717
318.15 K, x2 = 0.3125	726.84
318.15 K, x2 = 0.3941	736.68
318.15 K, x2 = 0.4659	746.38
318.15 K, x2 = 0.5311	756.19
318.15 K, x2 = 0.5965	767.1
318.15 K, x2 = 0.6714	781.02
318.15 K, x2 = 0.7111	789.15
318.15 K, x2 = 0.7598	799.77
318.15 K, x2 = 0.8122	812.28
318.15 K, x2 = 0.8596	824.75
318.15 K, x2 = 0.8955	835.04
318.15 K, x2 = 0.936	847.56
318.15 K, x2 = 0.9808	862.66
328.15 K, x2 = 0	690.4
328.15 K, x2 = 0.0202	691.7
328.15 K, x2 = 0.1246	699.9
328.15 K, x2 = 0.2225	708.81
328.15 K, x2 = 0.3109	717.88
328.15 K, x2 = 0.3923	727.35
328.15 K, x2 = 0.4644	736.84
328.15 K, x2 = 0.5377	747.63
328.15 K, x2 = 0.6125	759.98
328.15 K, x2 = 0.7233	781.1
328.15 K, x2 = 0.7593	788.8
328.15 K, x2 = 0.8102	800.56
328.15 K, x2 = 0.8505	810.9
328.15 K, x2 = 0.8934	822.54
328.15 K, x2 = 0.9507	840.17
328.15 K, x2 = 0.9876	852.64

[2]
Conditions	excess molar enthalpy [kcal/mol]
x2 = 0.0872	0.132
x2 = 0.1735	0.225
x2 = 0.2499	0.299
x2 = 0.3159	0.351
x2 = 0.3746	0.383
x2 = 0.433	0.404
x2 = 0.4869	0.414
x2 = 0.534	0.416
x2 = 0.5836	0.412
x2 = 0.6005	0.406
x2 = 0.6419	0.393
x2 = 0.6885	0.374
x2 = 0.7366	0.346
x2 = 0.7846	0.31
x2 = 0.8345	0.263
x2 = 0.8779	0.205
x2 = 0.9237	0.141
x2 = 0.9619	0.0734
